This note sets out measurements from US4366311A, “Novel dianemycin derivative” (Taisho Pharmaceutical Co., Ltd., priority 1980, dated 1982).

Structures can show the parent of a compound that is named as a salt. Bounds are passed on as bounds.

Data set [1] has as its system Escherichia coli NIHJ C-2. Description: MIC, antibacterial effects (Test Example 2). In kind it is cell-based. Conditions: NIHJC2, infusion agar medium, read-out: MIC (Minimum Inhibitory Concentration). The method, then: (§1) MIC (Minimum Inhibitory Concentration) was measured according to the method specified by the Chemotherapeutic Society using a heat infusion agar medium containing compound I sodium salt, to examine antibacterial effects of the compound.

The test system of data set [2] is Bacillus subtilis ATCC 6633. The data set can be described thus: MIC, antibacterial effects (Test Example 2). Conditions: ATCC6633, infusion agar medium, read-out: MIC (Minimum Inhibitory Concentration). In kind it is cell-based. The procedure: as §1
Data set [3] deals with Streptococcus faecalis ATCC 8043. Description: MIC, antibacterial effects (Test Example 2). In kind it is cell-based. Conditions: Enterococcus faecalis, ATCC8043, infusion agar medium, read-out: MIC (Minimum Inhibitory Concentration). The procedure:
as §1

The subject of the next data set is Bacillus licheniformis. The data set can be described thus: MIC, antibacterial effects (Test Example 2). In kind it is cell-based. Conditions: infusion agar medium, read-out: MIC (Minimum Inhibitory Concentration). The procedure: as §1
The subject of data set [4] is Staphylococcus epidermidis TPR-25. The data set can be described thus: MIC, antibacterial effects (Test Example 2). It counts as cell-based. Conditions: TPR25, infusion agar medium, read-out: MIC (Minimum Inhibitory Concentration). The method, then:
as §1

In data set [5] the test system is Staphylococcus epidermidis IID 866. Description: MIC, antibacterial effects (Test Example 2). Conditions: IID866, infusion agar medium, read-out: MIC (Minimum Inhibitory Concentration). In kind it is cell-based. The procedure:
as §1

Data set [6] has as its system Staphylococcus aureus Smith. The data set can be described thus: MIC, antibacterial effects (Test Example 2). In kind it is cell-based. Conditions: infusion agar medium, read-out: MIC (Minimum Inhibitory Concentration). The procedure: as §1
Data set [7] concerns Staphylococcus aureus TPR-23. Description: MIC, antibacterial effects (Test Example 2). In kind it is cell-based. Conditions: TPR23, infusion agar medium, read-out: MIC (Minimum Inhibitory Concentration). The method, then: as §1
Data set [8] relates to Staphylococcus aureus FDA 209 P. The data set can be described thus: MIC, antibacterial effects (Test Example 2). It counts as cell-based. Conditions: FDA209, infusion agar medium, read-out: MIC (Minimum Inhibitory Concentration). The procedure:
as §1

Data set [9] is described as follows: Acute toxicity, LD50 in mice (Test Example 3). Conditions: mouse, in vivo, ip; ddY male mice, intraperitoneal, mortality over 7 consecutive days; 5% gum arabic in saline. On the set-up: species or system mice (ddY strain, 4-week old). The procedure: Compound I sodium salt and the control drug of dianemycin sodium salt were respectively suspended in a 5% solution of gum arabic in saline solution.
Two groups of 7 ddY strain male mice (4-week old) were intraperitoneally injected with each of the above-described drug suspension. LD50 values (mg/kg) of the compounds were determined from the total mortality per group for 7 consecutive days to examine the acute toxicity.

For another data set, the system named is toxoplasma RH strain. The data set can be described thus: Anti-toxoplasma effect in cultivated mouse macrophage (Test Example 1). In kind it is cell-based, in macrophage of normal ICR mice. Conditions: 0.1 ppm compound in medium, 37° C., 48 hours. The method, then:
(§2) Normal ICR mice were intraperitoneally injected with 1 ml of a sterilized 0.2% solution of glycogen in saline solution and, after 5 days, intraperitoneally injected with 5 ml of a Hank's solution containing heparin to collect macrophage.
(§3) After centrifugation and washing, the macrophage was diluted with a medium of TC-199 containing 20% of calf serum so that the resulting solution contained about 10^6 cells/ml of macrophage. 1 ml of this suspension was pipetted into a cultivation Petri dish containing circular cover glass of 1.5 cm in diameter, followed by cultivation for 24 hours in an incubator containing 5% of carbon dioxide.
(§4) 5×10^5 toxiplasma RH strain collected on the 2nd day after intraperitoneal infection of mice were brought into contact with the thus cultivated macrophage at 37° C. for about 1 hour, and non-infectingtoxiplasma RH strain were washed away using the same medium followed by adding thereto the same medium.
(§5) A drug-containing group was prepared by adding compound I sodium salt to the medium so that the final concentration of the compound became 0.1 ppm.
(§6) Medical effects were evaluated as follows; After cultivation at 37° C. for 48 hours, May-Grunwald/Giemsa double straining was conducted to determine the percentage of macrophage cells containing therein 1 to 5 toxoplasma or 6 or more toxoplasma, thus the infected control group was compared with the drug-added group.

The next data set has as its system macrophage. Description: Cytotoxic effect on macrophage, observation under an optical microscope. Conditions: 0.1 ppm compound in medium. In kind it is cell-based, ICR mice. The procedure: as §2, §3, §4, §5, §6

As for `C/C(=C\C(C)C1OC2(CCC(C)(C3CC(O)C(C)C4(OC(C5OC(O)(CO)C(C)CC5C)CC4C)O3)O2)CC(O)C1C)C(=O)C(C)CC(C)C(=O)O` (centres unmarked) [Compound I sodium salt], the MIC in data set [1] was more than 200 µg/mL; in data set [2] it was 25 µg/mL; in data set [3], 50 µg/mL; in the data set on Bacillus licheniformis, 12.5 µg/mL; in data set [4], 50 µg/mL; in data set [5], 50 µg/mL. For the same molecule, the MIC in data set [6] worked out at 50 µg/mL; in data set [7], 50 µg/mL; in data set [8] it was 25 µg/mL. For the same molecule, the 50% lethal dose (LD50) at 168 h in [9] is 191 mg/kg. Moreover, the “Percentage of Toxoplasma-infected Macrophage, 1 to 5 Toxoplasma/cell” value in the data set with toxoplasma RH strain (infected control group 30.8) turned out to be 0%. Further, in the data set with toxoplasma RH strain (infected control group 31.8), the “Percentage of Toxoplasma-infected Macrophage, 6 or more Toxoplasma/cell” value was found to be 0%. Besides, the cytotoxic effect entry in the data set on macrophage is recorded as “no cytotoxic effect”.
`COC1CCC(OC2CC(C3(C)CCC4(CC(O)C(C)C(C(C)/C=C(\C)C(=O)C(C)CC(C)C(=O)O)O4)O3)OC3(OC(C4OC(O)(CO)C(C)CC4C)CC3C)C2C)OC1C` (centres unmarked) [Dianemycin Sodium Salt, reference compound]: in data set [9], the LD50 at 168 h was 7.2 mg/kg.
